Reference: publication PMC8224802 (Pharmaceutics, 2021)
Where two headings read alike, the source gives them in different places.

Tests used:
CYP3A4 = system: CYP3A4; parameters: method as in PMID 28232125; settings: read-out: Ki of QCT for CYP3A4 activity; cited from earlier work
[1] = system: in vitro metabolism of RPG in HLM; settings: cited from earlier work
[2] = Microsomal protein binding by rapid equilibrium dialysis (HLM); settings: human, microsomes
Method: (§1) A 200 μL spiked samples and 400 μL PBS were placed into the “sample” and “buffer” chambers of the RED device, respectively. After 4-h incubation to equilibrate between the buffer and plasma compartments, the RED plate was sampled from both compartments. The samples were matrix-matched for analysis by addition of either diluted plasma or buffer; (a) blank diluted plasma added to the buffer samples and (b) blank buffer added to the diluted plasma sample, at a ratio of 50:50 v/v. The unbound fractions in microsomes and diluted plasma were determined by dividing the analyte/IS peak area ratios of the (a) sample by those of the (b) sample. The unbound fraction in diluted plasma (fu,d) was converted to the unbound fraction in undiluted plasma (fu) using a Kalvass equation as below (DF: dilution factor). (1) fu=1/DF/[(1/fu,d)−1]+1/DF

[3] = system: microsomal metabolism of RPG (repaglinide); assay: In vitro inhibition of RPG metabolism by QCT in HLM; type: in vitro ADME, human; settings: human, human liver microsomes
Method: (§2) The intrinsic metabolic clearance (CLint) was calculated as Vmax/Km. […] The parameter α is indicative of the inhibition type. The mixed model is a general equation that includes competitive, uncompetitive, and noncompetitive inhibition as special cases. When α = 1, the mixed model is identical to a noncompetitive inhibition. When α is very large (α→∞) or very small (α→0), the mixed model becomes identical to competitive inhibition or uncompetitive inhibition, respectively.

[4] = system: microsomal metabolism of RPG in HLM; assay: as above; type: in vitro ADME, human
Method: as §2

[5] = parameters: method as in earlier work; settings: Table S3, ref [1] of the supplement (Ganio et al., 2010); cited from earlier work
[6] = Plasma protein binding by rapid equilibrium dialysis (human plasma); type: in vitro ADME; settings: human, plasma (20-fold diluted); Table S3, in-house; species not printed (clinical prediction); read-out: fu,QCT
Method: as §1

[7] = system: microsomal metabolism of RPG in RLM; assay: In vitro inhibition of RPG metabolism by QCT in RLM; type: in vitro ADME, rat
Method: as §2

[8] = system: microsomal metabolism of RPG (repaglinide); assay: as above; type: in vitro ADME, rat; settings: rat, rat liver microsomes
Method: as §2

[9] = In vivo oral pharmacokinetic study of RPG without or with QCT in rats; parameters: species or system Sprague-Dawley rats; settings: rats, oral QCT 100 mg/kg
Method: Rats were anesthetized via intramuscular injection of 10 mg/kg zoletil. The femoral vein and artery of the rats were cannulated using a polyethylene tube (BD Medical, Franklin Lakes, NJ, USA). […] The vehicle solutions for the intravenous and oral doses were composed of PEG 400 and aqueous 0.3% CMC solution (50:50 v/v).
For comparison, the extent of absolute oral bioavailability (F; expressed as percent of dose administered) was calculated by dividing the dose-normalized AUC after oral administration by the dose-normalized AUC after intravenous injection. The peak plasma concentration (Cmax) and time to reach Cmax (Tmax) were obtained directly from the measured experimental data.

[10] = healthy subjects, cited from earlier work
[11] = cited from earlier work
[12] = probe RPG (repaglinide), 1, 3, 10, 30 and 100 μM

O=c1c(O)c(-c2ccc(O)c(O)c2)oc2cc(O)cc(O)c12 [QCT, Quercetin]
Inhibition of in vitro metabolism of RPG ([1]; QCT 25 μM, RPG 0.2 μM): 58%
Effect of QCT on metabolism of RPG in HLM ([1]; RPG 0.2 and 2 μM, QCT 25 μM): significantly inhibited
Ki ([1]; read-out: Ki for the inhibitory effect of QCT on in vitro metabolism of RPG): 0.61 µM
fraction unbound at 4 h, 5 μM [2]: 0.381
IC50 ([3]; probe RPG (repaglinide), 3 μM, IC50 of QCT on the microsomal metabolism of RPG, HLM 0.5 mg/mL, 3 μM RPG): 3 µM
Ki [3, 12]: 24.2 µM
Ki ([3]; probe RPG (repaglinide), Table S3, S = 5 μM, read-out: Calculated Ki, (fu,mic,QCT × IC50) / (S / Km + 1)): 0.534 µM
Type of inhibition of RPG metabolism by QCT ([4]; HLM, Dixon plot and model fit): mixed inhibition
IC50 ([4]; Table S3, source Figure 4, read-out: IC50 used for estimation of R): 1.66 µM
Inhibition potency of QCT on hepatic metabolism of RPG in vitro ([4]; humans (HLM)): moderate
IC50 ([4]; read-out: IC50 of QCT on the microsomal metabolism of RPG, HLM 0.5 mg/mL, 3 μM RPG): 3.03 ± 1.84 µM
fraction unbound at 4 h, 5 μM [6]: 0.0462
Type of inhibition of RPG metabolism by QCT ([7]; RLM, Dixon plot and model fit): mixed inhibition
Inhibition potency of QCT on hepatic metabolism of RPG in vitro ([7]; rats (RLM)): weak
Ki at 60 min [8, 12]: 72 µM
Classification of QCT as inhibitor of in vivo metabolism and systemic exposure of RPG [9]: weak inhibitor

Cn1c(=O)c2c(ncn2C)n(C)c1=O [caffeine]
Effect of oral QCT on systemic exposure (AUC and/or Cmax) ([10]; QCT 500 mg/day for 14 days): significantly increased

COC(=O)[C@H](c1ccccc1Cl)N1CCc2sccc2C1 [clopidogrel]
Increase of systemic exposure to orally administered RPG by CYP2C8 inhibitors [11]: 3.1–5.1 fold

CCC(C)n1ncn(-c2ccc(N3CCN(c4ccc(OCC5COC(Cn6cncn6)(c6ccc(Cl)cc6Cl)O5)cc4)CC3)cc2)c1=O (stereo not shown) [itraconazole]
Increase of systemic exposure to orally administered RPG by CYP3A4 inhibitors [11]: 1.4 fold

CN(CCOc1ccc(CC2SC(=O)NC2=O)cc1)c1ccccn1 (stereo not shown) [rosiglitazone]
Effect of oral QCT on the pharmacokinetics of rosiglitazone ([10]; QCT 500 mg/day for 21 days): did not significantly change

CC[C@H]1OC(=O)[C@H](C)C(=O)[C@H](C)[C@@H](O[C@@H]2O[C@H](C)C[C@H](N(C)C)[C@H]2O)[C@](C)(OC)C[C@@H](C)C(=O)[C@H](C)[C@H]2N(CCCCn3cnc(-c4cccnc4)c3)C(=O)O[C@]12C [telithromycin]
Increase of systemic exposure to orally administered RPG by CYP3A4 inhibitors [11]: 1.8 fold

COc1cc(Cc2cnc(N)nc2N)cc(OC)c1OC [trimethoprim]
Increase of systemic exposure to orally administered RPG by CYP2C8 inhibitors [11]: 1.6–2 fold
